This note sets out measurements from US10351915B2 (Berg LLC, priority 2009, dated 2019).

For one data set, the system named is Bcl-2. The data set is described as follows: Western blot of building block components, Bcl-2 expression. In kind it is cell-based. The procedure:
(§1) Skmel-28 melanoma cells were cultured in DMEM/F12 supplemented with 5% Fetal Bovine Serum (FBS) and 1× final concentration of Antibiotics. The cells were grown to 85% confluency and treated with building block components for 3, 6, 12 and 24 hours. The cells were then pelleted and a Western blot analysis was performed.
(§2) In the Western Blot Analysis, the cells were pelleted in cold PBS, lysed, and the protein levels were quantified using a BCA protein assay. The whole cell lysate was loaded in a 4% loading 12% running Tris-HCl gel. The proteins were then transferred to a nitrocellulose paper then blocked with a 5% milk Tris-buffered solution for 1 hour. The proteins were then exposed to primary antibodies (Bcl-2 and Caspase-3) overnight. The nitrocellulose paper was then exposed to Pico Chemilluminescent for 5 min and the protein expression was recorded. After exposure, actin was quantified using the same method. Using ImageJ the levels of protein expression were quantified. A t-Test was used to analyze for statistical significance.
Background: A western blot detects proteins with antibodies after separation by electrophoresis.

In another data set the test system is Caspase-3. The data set can be described thus: Western blot of building block components, Caspase-3 expression. In kind it is cell-based. The procedure:
as §1, §2

The test system of the next data set is pancreatic cancer. Conditions: 5 mg/kg (Group H), after 28 days.
The subject of a further data set is Melanoma cells. The data set can be described thus: Cell proliferation assay (cell count). Type of data set: cell-based. As for the experimental part:
The first study examined the effect of combining 4-Hydroxy-Benzoate with Benzoquinone. Cells were incubated for 48 hours, after which a cell count was performed for the live cells. Each test group was compared to the control, and each combination groups were compared to Benzoquinone control. The compounds were statistically analyzed for the addition of Benzoquinone.
Additional studies were performed testing additional molar ratios. For the first test 4-Hydroxybenzoic were tested at concentrations of 500 nM, 1 μM, and 50 μM. These concentrations were tested in combination with 2,3-Dimethoxy-5-methyl-p-benzoquinone (Benzo). The concentration of Benzo tested were 25 μM, 50 μM, and […]. Melanoma cells were grown to 80% confluency and seeded in 6 well plates at a concentration of 40K cells per well. The cells were treated with CoQ10, 4-Hydroxybenzoate, Benzo, and a combination of 4-Hydroxybenzoate/Benzo.
A T-test was performed with p<0.05 as statistically significant.

The next data set concerns HDFa cells. The data set can be described thus: Extracellular acidification rate (ECAR), SeaHorse XF analyzer. In kind it is cell-based, human. Particulars: HDFa. From the text: (SeaHorse Biosciences Inc, North Billerica, Mass.).
In this experiment, the OCR and extracellular acidification rate (ECAR) in normal cells lines were obtained in the presence and absence of CoQ10 to determine baseline values. It was observed that in its native nutrient environment, the basal OCR rates in normal cells lines are different, and are usually a function of the physiological roles of the cells in the body.
Table 127 below describes the ECAR values (mpH/min) in HDFa cells in the presence or absence of CoQ10 under normoxic and hypoxic conditions at 5.5 mM and 22 mM glucose.

Setting [1] is: concentration not given, 24 hours.
[2] abbreviates: all concentrations and time points tested.

For `NC(Cc1ccccc1)C(=O)O` (racemic) [DL-Phenylalanine], in the data set with Bcl-2 (setting [1]), the Bcl-2 expression entry is on record as “statistically significant decrease”. Further, the Caspase-3 expression entry in the data set with Caspase-3 (concentration not given, 3 hours) is listed as “statistically significant increase”. Take `COc1cc(C(=O)O)ccc1O` [Vanillic Acid, vanillic acid]: in the data set with Bcl-2 (500 nM, 24 hour), the Bcl-2 expression result is given as “significantly reduce”. As to `N[C@H](Cc1ccccc1)C(=O)O` [D-Phenylalanine], the Bcl-2 expression result with Bcl-2 (10 μM, 6 hours) is reported as “significant reduction”.

For the compound `COc1cccc2c1C(=O)c1c(O)c3c(c(O)c1C2=O)C[C@@](O)(C(=O)CO)C[C@@H]3O[C@H]1C[C@H](N)[C@H](O)[C@H](C)O1` [Doxorubicin, reference compound], the survival result in the data set on pancreatic cancer is recorded as “a significant number of the animals in Group H had died”. Consider `N[C@H](Cc1ccc(O)cc1)C(=O)O` [D-Tyrosine], for which the Caspase-3 expression entry is given as “increase” in the data set on Caspase-3 (1 μM, 12 hour) and “increase” in the data set on Caspase-3 (1 μM, 24 hour). In the case of `Cc1ncc(CO)c(CO)c1O` [Pyridoxine, pyridoxine], the Bcl-2 expression result in the data set with Bcl-2 (setting [1]) is “significant reduction”. With `CC(=O)SCCNC(=O)CCNC(=O)[C@H](O)C(C)(C)COP(=O)(O)OP(=O)(O)OC[C@H]1O[C@@H](n2cnc3c(N)ncnc32)[C@H](O)[C@@H]1OP(=O)(O)O` [Acetyl-CoA], in the data set on Caspase-3 (setting [2]), the Caspase-3 expression entry is recorded as “no significant observed reduction in Bcl-2 or increase in Caspase-3 expression”. Take `COc1cc(C(O)C(=O)O)ccc1O` (stereo not shown) [VMA, 3-methoxy-4-hydroxymandelate]: the apoptotic effect result in the data set with Bcl-2 (100 nM to 100 μM) was “no statistically significant apoptotic effect”.

`O=C(O)c1ccc(O)cc1` [4-Hydroxybenzoate, 4-hydroxy-benzoate]: the “cell number (live cells) vs control” value with Melanoma cells (48 hours) is given as “significant decrease”. In addition, the cell proliferation entry in the data set with Melanoma cells (HB 500 nM, 1 μM, 50 μM, p<0.05) is on record as “significant decrease”. Consider `COC1=C(OC)C(=O)C(C/C=C(\C)CC/C=C(\C)CC/C=C(\C)CC/C=C(\C)CC/C=C(\C)CC/C=C(\C)CC/C=C(\C)CC/C=C(\C)CC/C=C(\C)CCC=C(C)C)=C(C)C1=O` [compound 31510], for which the ECAR with HDFa cells (Hypoxia (5.5 mM) glucose, 50 μM) was determined as 5 mpH/min; in the data set with HDFa cells (Hypoxia (5.5 mM) glucose, 100 μM), 5 mpH/min; in the data set on HDFa cells (Hypoxia (22 mM) glucose, 50 μM) it was 6 mpH/min; in the data set on HDFa cells (Hypoxia (22 mM) glucose, 100 μM) it was 8 mpH/min; in the data set with HDFa cells (Normoxia (5.5 mM) glucose, 50 μM), 6 mpH/min; with HDFa cells (Normoxia (5.5 mM) glucose, 100 μM), 6 mpH/min. The ECAR with HDFa cells (Normoxia (22 mM) glucose, 50 μM) stood at 5 mpH/min; in the data set with HDFa cells (Normoxia (22 mM) glucose, 100 μM) it was 5 mpH/min. Regarding `C[C@@](O)(CCO)CC(=O)O` [Mevalonic Acid, mevalonic acid], in the data set on Caspase-3 (setting [2]), the Caspase-3 expression result is on record as “no significant reduction in Bcl-2 expression or an increase in Caspase-3 expression”. On to `CC(=O)NCC(=O)O` [Acetylglycine], for which, in the data set on Bcl-2 (10 μM, 24 hour), the Bcl-2 expression entry was “significant decrease”.
